{"source": "patent US4542123A", "about": "(Massachusetts Institute of Technology, priority 1982, dated 1985)", "key": {"[1]": {"assay": "Brain and serum tyrosine in fasted rats given tyrosine alone or tyrosine and glucose (Example III, Table 2)", "type": "in vivo, Sprague-Dawley rats", "settings": "tyrosine 100 mg/kg alone; 90 min"}, "[2]": {"assay": "in vivo", "settings": "rat, po, 100 mg/kg"}, "[3]": {"assay": "Brain and plasma tyrosine ratios in fasted rats, tyrosine and glucose given concurrently (Example II, second set)", "settings": "rat, brain, po, 100 mg/kg"}}}
{"smiles": "N[C@@H](Cc1ccc(O)cc1)C(=O)O", "note": "[Tyrosine, tyrosine]", "values": [{"measurement": "Brain Tyrosine", "setting": "[1]", "result": "23.0 ± 2.2", "unit": "µg/mL"}, {"measurement": "Brain/Serum (tyrosine)", "setting": "[1]", "result": "1.02 ± 0.1"}, {"measurement": "Serum Tyrosine/Serum LNAA", "setting": "[1]", "result": ".304"}, {"measurement": "Kp at 1 h", "setting": "[2]; brain", "result": 0.78}, {"measurement": "concentration at 1 h", "setting": "[2]; serum", "result": 20900, "unit": "ng/mL"}, {"measurement": "Kp at […]", "setting": "[3]", "result": 0.77}]}
